According to PubChem BioAssay (NCI):
Values joined by “and” are separate entries in the source; they are usually repeats but may differ in a detail not shown here. Identical values can stand only once.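 1) Cells in 96-well plates. 2) Compound, 48 h, 5 concentrations. 3) Linear interpolation between surrounding doses. 4) Unreached endpoint = highest concentration. GI50 = concentration required for 50% inhibition of growth. The concentration for full growth arrest is given as TGI.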

Legend:
Test in all cases: NCI anticancer screen, dose series, 48 h
[1] = tested on: A498 renal
[2] = tested on: RPMI-8226 leukemia
[3] = tested on: NCI-H226 lung
[4] = tested on: NCI-H460 lung
[5] = tested on: NCI-H522 lung
[6] = tested on: SNB-19 CNS
[7] = tested on: SF-539 CNS
[8] = tested on: SK-MEL-5 melanoma
[9] = tested on: OVCAR-8 ovarian
[10] = tested on: COLO 205 colon

| SMILES | GI50 [1] | TGI [1] | GI50 [2] | TGI [2] | GI50 [3] | TGI [3] | GI50 [4] | TGI [4] | GI50 [5] | TGI [5] | GI50 [6] | TGI [6] | GI50 [7] | TGI [7] | GI50 [8] | TGI [8] | GI50 [9] | TGI [9] | GI50 [10] | TGI [10] |
| --- | --- | --- | --- | --- | --- | --- | --- | --- | --- | --- | --- | --- | --- | --- | --- | --- | --- | --- | --- | --- |
| OCc1ccc(-c2nn(Cc3ccccc3)c3ccccc23)o1 | 0.092 µM and 0.0445 µM | 0.25 µM and 0.144 µM | 14.3 µM and 3.15 µM | 43.8 µM and 15.3 µM | 0.156 µM and 0.114 µM | 0.346 µM and 0.371 µM | 12.8 µM and 12.2 µM | 29.4 µM and 28.5 µM | 12 µM and 20.6 µM | 28.2 µM and > 58.7 µM | 21.5 µM and 13.7 µM | 96.7 µM and > 52 µM | 16.2 µM and 18.6 µM | 32.2 µM and 35.5 µM | 13.7 µM and 14.2 µM | 26.7 µM and 27.3 µM | 16.3 µM and 20.7 µM | 44.7 µM and 57 µM | 8.05 µM and 5.73 µM | 26.2 µM and 21.7 µM |
| CC(C)(C)c1ccc(S(=O)(=O)N[C@H]2CC[C@H]3[C@@H]4CCc5cc(OS(=O)(=O)O)ccc5[C@H]4CC[C@]23C)cc1 | 1.5 µM | 3.04 µM | 2.55 µM | 7.37 µM | 1.59 µM | 3.06 µM | 2.19 µM | 4.79 µM | 1.93 µM | 5.15 µM | 3.49 µM | 13.8 µM | 1.8 µM | 3.34 µM | 1.64 µM | 2.99 µM | 2.79 µM | 8.46 µM | 1.83 µM | 3.29 µM |
| CC(CNC(Cc1ccccc1)c1ccccc1)NC(Cc1ccccc1)c1ccccc1 (stereo not given) | 2.26 µM | 5.02 µM | 2.23 µM | 4.88 µM | 1.94 µM | 4.09 µM | 2.03 µM | 4.06 µM | 1.63 µM | 3.5 µM | 3.19 µM | 13.5 µM | 1.93 µM | 3.69 µM | 1.79 µM | 3.23 µM | 2.6 µM | 6.17 µM | 1.66 µM | 3.46 µM |
| CC(=O)NC1=C(C)C(=O)c2c(nc3n2CCC3O)C1=N (stereo not given) |  | 59.6 µM |  | > 100 µM |  | 33.1 µM |  | 51.3 µM |  | 19.6 µM |  | 50.4 µM |  | 13.9 µM |  | 26.2 µM |  | 16.7 µM |  | 33.4 µM |
| Clc1nc(Cl)c2ncn(Cc3ccc(COc4cccc(OCc5ccc(Cn6cnc7c(Cl)nc(Cl)nc76)cc5)c4)cc3)c2n1 | 39.2 µM | > 100 µM | 9.5 µM | > 100 µM | 21 µM | 60.3 µM | > 100 µM | > 100 µM | 61.9 µM | > 100 µM | > 100 µM | > 100 µM | > 100 µM | > 100 µM | 14.3 µM | 95.5 µM | 33.6 µM | > 100 µM | > 100 µM | > 100 µM |
| N#C/C(=C\c1cccc(O)c1)C(N)=O |  | > 100 µM |  | > 100 µM |  | > 100 µM |  | > 100 µM |  | > 100 µM |  | > 100 µM |  | > 100 µM |  | > 100 µM |  | > 100 µM |  | > 100 µM |
| CCCCCCCCCCCCCC(=O)CBr |  | 35.5 µM |  | 4.24 µM |  | 35.1 µM |  | 35.3 µM |  | 3.85 µM |  | 33.7 µM |  | 30.7 µM |  | 26.3 µM |  | 35.6 µM |  | 30.1 µM |
| Cc1nc2sc(C(=O)Nc3ccccc3)c(N)c2cc1C(=O)/C=C/c1ccccc1 | 2.21 µM | 6.08 µM | 1.67 µM | 5.2 µM | 2.04 µM | 4.6 µM | 1.96 µM | 4.15 µM | 1.77 µM | 4.24 µM | 1.89 µM | 4.17 µM | 1.88 µM | 3.56 µM | 2.27 µM | 5.98 µM | 3.03 µM | 11.8 µM | 2.02 µM | 4.49 µM |
| COc1ccc2c(c1)OC(N(C(C)=O)C(C)=O)=C(C#N)C2c1ccc(F)cc1 (stereo not given) | 2.43 µM | > 100 µM | 3.18 µM | 27.1 µM | 25.5 µM | > 100 µM | 1.88 µM | 45.5 µM | 0.619 µM | 18.3 µM | 2.91 µM | > 100 µM | 1.55 µM | 6.93 µM | 1.98 µM | 18.3 µM | 3.92 µM | > 100 µM | 2.2 µM | 7.26 µM |
| CC(=O)OCC1OC(n2ccc(=O)[nH]c2=O)C(OC(C)=O)C1OC(C)=O (stereo not given) | > 100 µM | > 100 µM | > 100 µM | > 100 µM | > 100 µM | > 100 µM | > 100 µM | > 100 µM | > 100 µM | > 100 µM | > 100 µM | > 100 µM | > 100 µM | > 100 µM | > 100 µM | > 100 µM | > 100 µM | > 100 µM | > 100 µM | > 100 µM |
| COc1cc(-c2cn(-c3ccc(Cl)cc3)c(C)c2C(=O)C(F)(F)F)cc(OC)c1OC | 27.2 µM | > 100 µM | 5.3 µM | > 100 µM | > 100 µM | > 100 µM | 33.4 µM | > 100 µM | 37 µM | > 100 µM | > 100 µM | > 100 µM | > 100 µM | > 100 µM | 7.18 µM | > 100 µM | > 100 µM | > 100 µM | > 100 µM | > 100 µM |
| CC(=O)c1cc([N+](=O)[O-])ccc1OCC(=O)O |  | > 100 µM |  | > 100 µM |  | > 100 µM |  | > 100 µM |  | > 100 µM |  | > 100 µM |  | > 100 µM |  | > 100 µM |  | > 100 µM |  | > 100 µM |
| O=C(CN1CCN(c2ccccc2)CC1)N1CCc2c([nH]c3ccccc23)C1c1cccnc1 (stereo not given) |  | > 100 µM |  | > 100 µM |  | > 100 µM |  | > 100 µM |  | > 85.7 µM |  | > 100 µM |  | 57.8 µM |  | > 100 µM |  | > 100 µM |  | > 100 µM |
| Clc1nc(Cl)c2c(ncn2C/C=C\Cn2cnc3c(Cl)nc(Cl)nc32)n1 | 12.4 µM | 25.6 µM | 1.58 µM | 3.8 µM | 1.76 µM | 3.84 µM | 2.34 µM | 5.65 µM | 0.697 µM | 2.1 µM | 1.66 µM | 3.16 µM | 2.38 µM | 5.46 µM | 1.31 µM | 2.79 µM | 1.2 µM | 4.37 µM | 1.46 µM | 3.01 µM |
| COc1ccc(O)c(C#N)c1C#N |  | > 100 µM |  | > 100 µM |  | > 100 µM |  | > 100 µM |  | > 100 µM |  | > 100 µM |  | > 100 µM |  | > 100 µM |  | > 100 µM |  | > 100 µM |
| Cc1ccc(NC(=O)/C(=N\Nc2ccc([N+](=O)[O-])cc2[N+](=O)[O-])C2C(=O)NC(=O)NC2=O)cc1 |  | > 100 µM |  | > 100 µM |  | > 100 µM |  | > 100 µM |  | > 100 µM |  | > 100 µM |  | 90.9 µM |  | > 100 µM |  | > 100 µM |  | > 100 µM |
| COc1c(N2CCN(CN3C(=O)C(=Nc4ccc(S(=O)(=O)Nc5ncccn5)cc4)c4ccccc43)C(C)C2)c(F)cc2c(=O)c(C(=O)O)cn(C3CC3)c12 (stereo not given) | 0.833 µM | 14.2 µM | 28.7 µM | > 50 µM | 32.1 µM | > 50 µM | 22.4 µM | > 50 µM | > 50 µM | > 50 µM | 6.51 µM | 31.3 µM | > 50 µM | > 50 µM | 20.2 µM | > 50 µM | 21.4 µM | > 50 µM | 0.269 µM | > 50 µM |
| N#CC(C(=O)C(=O)NCCCNC(=O)C(=O)C(C#N)c1ccccc1)c1ccccc1 (stereo not given) |  | > 100 µM |  | > 100 µM |  | > 100 µM |  | > 100 µM |  | > 100 µM |  | > 100 µM |  | > 100 µM |  | > 100 µM |  | > 100 µM |  | > 100 µM |
| Cc1cc2c3ccccc3n(C)c2c2c1C(=O)C=CC2=O |  | 35.5 µM |  | 5.47 µM |  | 42.5 µM |  | 33.2 µM |  | 31.8 µM |  | 73 µM |  | 41.9 µM |  | 51.6 µM |  | 62.7 µM |  | 33.6 µM |
| CC1OC2CC(=O)OC2C2=C1C(=O)c1c(O)c3c(c(O)c1C2=O)C1CC(O)C3(O)C(C)O1 (stereo not given) | 1.65 µM | 3.42 µM | 0.267 µM | 0.876 µM | 0.974 µM | 3.18 µM | 0.784 µM | 3.14 µM | 0.195 µM | 0.447 µM | 1.94 µM | 5.84 µM | 0.458 µM | 1.37 µM | 1.23 µM | 2.5 µM | 0.271 µM | 3.5 µM | 0.186 µM | 0.453 µM |
| COc1cc(Nc2nc(N[C@H]3CCCC[C@@H]3N)nc3cc[nH]c(=O)c23)cc(OC)c1 | 1.01 µM | 10.1 µM | 2.18 µM | 12.1 µM | 1.88 µM | 12.4 µM | 1.28 µM | 4.21 µM | 1.45 µM | 4.55 µM | 3.01 µM | 16.7 µM | 0.454 µM | 2.64 µM | 1.22 µM | 6.06 µM | 3.17 µM | 19.6 µM | 1.04 µM | 2.49 µM |
| CN(C)CCCN1CCc2c([nH]c3ccccc23)C1c1cccnc1 (stereo not given) |  | > 100 µM |  | > 100 µM |  | > 100 µM |  | > 100 µM |  | > 100 µM |  | > 100 µM |  | > 100 µM |  | > 100 µM |  | > 100 µM |  | > 100 µM |
